According to patent US9556139B2, “6-substituted phenoxychroman carboxylic acid derivatives” (Array BioPharma Inc., priority 2008, dated 2017):
pEC50: −log10 of the molar value.

What follows are compounds tested against human DP2 (Homo sapiens (Human), UniProt Q9Y5Y4) (assay: DP-2 Binding Inhibition Assay (3H-PGD2 binding to membranes of K562 cells expressing DP2)). Conditions: read-out: EC50 (Nm) 1% HSA; inhibition of 3H-PGD2 binding, 1% HSA.
Procedure, shortened: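 Membranes from K562 stably expressing DP2, incubated 60 min at room temperature with ³H-PGD2 and compound in Tris pH 7.4 buffer with 0.1% BSA, 1% HSA or 4% HSA; filtration read-out. Nonspecific binding: 1 μM unlabeled PGD2 or 5 μM known antagonist. EC50 from 4-parameter logistic fit.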

human DP2, sequence (Q9Y5Y4 whole entry): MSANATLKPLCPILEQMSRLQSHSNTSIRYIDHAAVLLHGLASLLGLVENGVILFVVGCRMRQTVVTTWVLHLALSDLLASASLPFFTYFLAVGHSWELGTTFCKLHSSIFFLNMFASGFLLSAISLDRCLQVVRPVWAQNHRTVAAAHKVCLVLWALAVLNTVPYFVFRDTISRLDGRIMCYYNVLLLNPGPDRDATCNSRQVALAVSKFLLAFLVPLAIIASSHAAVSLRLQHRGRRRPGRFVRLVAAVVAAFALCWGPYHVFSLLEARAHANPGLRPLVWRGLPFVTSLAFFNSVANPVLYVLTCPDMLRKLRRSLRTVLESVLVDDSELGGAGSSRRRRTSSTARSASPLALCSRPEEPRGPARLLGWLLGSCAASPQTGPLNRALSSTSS

SMILES | pEC50
N#Cc1cc2c(cc1Oc1ccc(C(=O)Nc3ccc(C(F)(F)F)cc3)cc1)OCCC2C(=O)O (stereo not shown) [Example 75, 6-Cyano-7-(4-(4-(trifluoromethyl)phenylcarbamoyl)phenoxy)chroman-4-carboxylic acid] | 7.92
CC(Cc1ccc(Cl)cc1)NC(=O)c1ccc(Oc2cc3c(cc2C#N)C(C(=O)O)CCO3)cc1 (stereo not shown) [Example 132, 7-(4-(1-(4-Chlorophenyl)propan-2-ylcarbamoyl)phenoxy)-6-cyanochroman-4-carboxylic acid] | 7.43
N#Cc1cc2c(cc1Oc1ccc(C(=O)NCCc3ccccc3)cc1)OCCC2C(=O)O (stereo not shown) [Example 5, 6-Cyano-7-(4-(phenethylcarbamoyl)phenoxy)chroman-4-carboxylic acid] | 7.43
O=C(NCCc1ccc(Cl)cc1)c1ccc(Oc2c(Cl)cc3c(c2Cl)OCCC3C(=O)O)cc1 (stereo not shown) [Example 46, Sodium 6,8-dichloro-7-(4-(4-chlorophenethylcarbamoyl)phenoxy)chroman-4-carboxylate] | 7.80
COc1ccc2c(c1)CCC(NC(=O)c1ccc(Oc3cc4c(cc3C#N)C(C(=O)O)CCO4)cc1)C2 (stereo not shown) [Example 53, 6-Cyano-7-(4-(6-methoxy-1,2,3,4-tetrahydronaphthalen-2-ylcarbamoyl)phenoxy)chroman-4-carboxylic acid] | 7.22
N#Cc1cc2c(cc1Oc1ccc(C(=O)NC3Cc4ccccc4C3)cc1)OCCC2C(=O)O (stereo not shown) [Example 6, 6-Cyano-7-(4-(2,3-dihydro-1H-inden-2-ylcarbamoyl)phenoxy)chroman-4-carboxylic acid] | 7.11

Same assay, conditions: read-out: EC50 (nM) 4% HSA; inhibition of 3H-PGD2 binding, 4% HSA

SMILES | EC50 [nM]
O=C(NCCc1ccc2ccccc2c1)c1ccc(Oc2cc3c(cc2Cl)C(C(=O)O)CCO3)cc1 (stereo not shown) [Example 87, Sodium 6-chloro-7-(4-(2-(naphthalen-2-yl)ethylcarbamoyl)phenoxy)chroman-4-carboxylate] | 234
O=C(NCCc1ccccc1OC(F)(F)F)c1ccc(Oc2cc3c(cc2Cl)C(C(=O)O)CCO3)cc1 (stereo not shown) [Example 64, Sodium 6-chloro-7-(4-(2-(trifluoromethoxy)phenethylcarbamoyl)phenoxy)chroman-4-carboxylate] | 153
O=C(NC1CCCC(c2ccccc2)C1)c1ccc(Oc2cc3c(cc2Cl)C(C(=O)O)CCO3)cc1 (stereo not shown) [Example 158, 6-Chloro-7-(4-(3-phenylcyclohexylcarbamoyl)phenoxy)chroman-4-carboxylic acid] | 1650
O=C(NC1CCC(c2cccc(C(F)(F)F)c2)C1)c1ccc(Oc2cc3c(cc2Cl)C(C(=O)O)CCO3)cc1 (stereo not shown) [Example 170, Sodium 6-chloro-7-(4-(3-(3-(trifluoromethyl)phenyl)cyclopentylcarbamoyl)phenoxy)chroman-4-carboxylate] | 298
O=C(NCCc1ccccc1-c1ccc(Cl)cc1)c1ccc(Oc2cc3c(cc2Cl)C(C(=O)O)CCO3)cc1 (stereo not shown) [Example 94, Sodium 6-chloro-7-(4-(2-(4′-chlorobiphenyl-2-yl)ethylcarbamoyl)phenoxy)chroman-4-carboxylate] | 287
O=C(NCCc1ccccc1-c1cccc(Cl)c1)c1ccc(Oc2cc3c(cc2Cl)C(C(=O)O)CCO3)cc1 (stereo not shown) [Example 95, Sodium 6-chloro-7-(4-(2-(3′-chlorobiphenyl-2-yl)ethylcarbamoyl)phenoxy)chroman-4-carboxylate] | 91.8
Cc1ccc(-c2cccc(NC(=O)c3ccc(Oc4cc5c(cc4C#N)C(C(=O)O)CCO5)cc3)c2)cc1 (stereo not shown) [Example 107, 6-Cyano-7-(4-(4′-methylbiphenyl-3-ylcarbamoyl)phenoxy)chroman-4-carboxylic acid] | 115
O=C(NCCc1ccc(Cl)cc1)c1ccc(Oc2c(Cl)cc3c(c2Cl)OCCC3C(=O)O)cc1 (stereo not shown) [Example 46, Sodium 6,8-dichloro-7-(4-(4-chlorophenethylcarbamoyl)phenoxy)chroman-4-carboxylate] | 176
CC(C)Oc1cc(Cl)ccc1CCNC(=O)c1ccc(Oc2cc3c(cc2Cl)C(C(=O)O)CCO3)cc1 (stereo not shown) [Example 202, sodium 6-chloro-7-(4-(4-chloro-2-isopropoxy-phenethylcarbamoyl)phenoxy)chroman-4-carboxylate] | 71.6
CSc1ccc(C2CCC(NC(=O)c3ccc(Oc4cc5c(cc4Cl)C(C(=O)O)CCO5)cc3)C2)cc1 (stereo not shown) [Example 175, Sodium 6-chloro-7-(4-(3-(4-(methylthio)phenyl)cyclopentylcarbamoyl)phenoxy)chroman-4-carboxylate] | 572
O=C(NCCc1ccccc1-c1ccccc1)c1ccc(Oc2cc3c(cc2Cl)C(C(=O)O)CCO3)cc1 (stereo not shown) [Example 92, Sodium 7-(4-(2-(biphenyl-2-yl)ethylcarbamoyl)phenoxy)-6-chlorochroman-4-carboxylate] | 111
O=C(NCCSc1ccc(Cl)cc1)c1ccc(Oc2cc3c(cc2Cl)C(C(=O)O)CCO3)cc1 (stereo not shown) [Example 113, Sodium 6-chloro-7-(4-(2-(4-chlorophenylthio)ethylcarbamoyl)phenoxy)chroman-4-carboxylate] | 2380
O=C(NCCc1ccc(OC(F)F)cc1)c1ccc(Oc2cc3c(cc2Cl)C(C(=O)O)CCO3)cc1 (stereo not shown) [Example 223, 6-chloro-7-(4-(4-(difluoromethoxy)phenethylcarbamoyl)phenoxy) chroman-4-carboxylic acid] | 209
O=C(NCCC1CC1)c1ccc(Oc2cc3c(cc2Cl)C(C(=O)O)CCO3)cc1 (stereo not shown) [Example 25, Sodium 6-chloro-7-(4-(2-cyclopropylethylcarbamoyl)phenoxy)chroman-4-carboxylate] | 3330
O=C(NCCc1ccc(Cl)cc1OCC1CC1)c1ccc(Oc2cc3c(cc2Cl)C(C(=O)O)CCO3)cc1 (stereo not shown) [Example 199, sodium 6-chloro-7-(4-(4-chloro-2-(cyclopropyl-methoxy)phenethylcarbamoyl)phenoxy)chroman-4-carboxylate] | 111
CSc1ccc(C2CCCC(NC(=O)c3ccc(Oc4cc5c(cc4Cl)C(C(=O)O)CCO5)cc3)C2)cc1 (stereo not shown) [Example 162, 6-Chloro-7-(4-(3-(4-(methylthio)phenyl)cyclohexylcarbamoyl)phenoxy)chroman-4-carboxylic acid] | 430

SMILES | EC50 [nM]
O=C(NCCc1ccc(Cl)cc1Br)c1ccc(Oc2cc3c(cc2Cl)C(C(=O)O)CCO3)cc1 (stereo not shown) [Example 32, Sodium 7-(4-(2-bromo-4-chlorophenethylcarbamoyl)phenoxy)-6-chlorochroman-4-carboxylate] | 88
O=C(NC1COC2(CCCC2)C1)c1ccc(Oc2cc3c(cc2Cl)C(C(=O)O)CCO3)cc1 (stereo not shown) [Example 187, Sodium 7-(4-(1-oxaspiro[4.4]nonan-3-ylcarbamoyl)phenoxy)-6-chlorochroman-4-carboxylate] | 649
O=C(NCCc1ccc(Cl)cc1Cl)c1ccc(Oc2cc3c(cc2C2CC2)C(C(=O)O)CCO3)cc1 (stereo not shown) [Example 42, Sodium 6-cyclopropyl-7-(4-(2,4-dichlorophenethylcarbamoyl)phenoxy)chroman-4-carboxylate] | 73.8
N#Cc1cc2c(cc1Oc1ccc(C(=O)Nc3cccc(-c4ccccc4)c3)cc1)OCCC2C(=O)O (stereo not shown) [Example 67, 7-(4-(Biphenyl-3-ylcarbamoyl)phenoxy)-6-cyanochroman-4-carboxylic acid] | 173
O=C(NCCCCc1ccc(Cl)cc1Cl)c1ccc(Oc2cc3c(cc2Cl)C(C(=O)O)CCO3)cc1 (stereo not shown) [Example 19, Sodium 6-chloro-7-(4-(4-(2,4-dichlorophenyl)butylcarbamoyl)phenoxy)chroman-4-carboxylate] | 638
CC(C)(C)Oc1ccccc1CCNC(=O)c1ccc(Oc2cc3c(cc2Cl)C(C(=O)O)CCO3)cc1 (stereo not shown) [Example 116, Sodium 7-(4-(2-tert-butoxyphenethylcarbamoyl)phenoxy)-6-chlorochroman-4-carboxylate] | 304
O=C(NCCc1ccccc1F)c1ccc(Oc2cc3c(cc2Cl)C(C(=O)O)CCO3)cc1 (stereo not shown) [Example 153, Sodium 6-chloro-7-(4-(2-fluorophenethylcarbamoyl)phenoxy)chroman-4-carboxylate] | 521
O=C(NCCc1ccc(-c2ccccc2Cl)cc1)c1ccc(Oc2cc3c(cc2Cl)C(C(=O)O)CCO3)cc1 (stereo not shown) [Example 26, Sodium 6-chloro-7-(4-(2-(2′-chlorobiphenyl-4-yl)ethylcarbamoyl)phenoxy)chroman-4-carboxylate] | 160
Cc1cccc(-c2cccc(NC(=O)c3ccc(Oc4cc5c(cc4C#N)C(C(=O)O)CCO5)cc3)c2)c1 (stereo not shown) [Example 108, 6-Cyano-7-(4-(3′-methylbiphenyl-3-ylcarbamoyl)phenoxy)chroman-4-carboxylic acid] | 69.3
O=C(NCCc1c(Cl)cccc1Cl)c1ccc(Oc2cc3c(cc2Cl)C(C(=O)O)CCO3)cc1 (stereo not shown) [Example 80, Sodium 6-chloro-7-(4-(2,6-dichlorophenethylcarbamoyl)phenoxy)chroman-4-carboxylate] | 165
O=C(NCCc1ccc(Cl)cc1F)c1ccc(Oc2cc3c(cc2Cl)C(C(=O)O)CCO3)cc1 (stereo not shown) [Example 230, 6-chloro-7-(4-(4-chloro-2-fluorophenethylcarbamoyl)phenoxy)chroman-4-carboxylic acid] | 243
Cc1cc(C(=O)NCCc2ccc(Cl)cc2)ccc1Oc1cc2c(cc1Cl)C(C(=O)O)CCO2 (stereo not shown) [Example 181, Sodium 6-chloro-7-(4-(4-chlorophenethylcarbamoyl)-2-methylphenoxy)chroman-4-carboxylate] | 331
O=C(NC1CN(c2cccc(C(F)(F)F)c2)C1)c1ccc(Oc2cc3c(cc2Cl)C(C(=O)O)CCO3)cc1 (stereo not shown) [Example 121, Sodium 6-chloro-7-(4-(1-(3-(trifluoromethyl)phenyl)azetidin-3-ylcarbamoyl)phenoxy)chroman-4-carboxylate] | 4320
Cc1nccc(-c2cccc(NC(=O)c3ccc(Oc4cc5c(cc4C#N)C(C(=O)O)CCO5)cc3)c2)n1 (stereo not shown) [Example 70, 6-Cyano-7-(4-(3-(2-methylpyrimidin-4-yl)phenylcarbamoyl)phenoxy)chroman-4-carboxylic acid] | 995
O=C(NCCOc1ccccc1Cl)c1ccc(Oc2cc3c(cc2Cl)C(C(=O)O)CCO3)cc1 (stereo not shown) [Example 115, Sodium 6-chloro-7-(4-(2-(2-chlorophenoxyl)ethylcarbamoyl)phenoxy)chroman-4-carboxylate] | 2440
